Among the data in the supplement of paper PMC10290057 are AC50 cell viability and efficacy values, retold here.

The test system of assay [1] is HCT116. The assay is described as follows: AC50 cell viability (CellTiter-Glo); higher = less potent. To be noted: 48 h. Background: In ATP-based viability assays light output follows the ATP content of the culture.
For assay [2], the system named is HCT116. Briefly: efficacy (fitted maximal change in viability relative to DMSO control); higher = less cytotoxic (negative = loss of viability). To be noted: 48 h.
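Throughout, for AC50 cell viability (CellTiter-Glo): HCT116 colorectal carcinoma cells screened at five concentrations per compound, luminescent viability scaled between DMSO wells and empty wells on each plate, curves fitted per compound.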
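Throughout, for efficacy (fitted maximal change in viability relative to DMSO control): Luminescence-based viability readout, five doses per compound, normalized against on-plate DMSO and empty-well controls, followed by dose-response curve fitting for every drug.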

`Cn1cnc2c(F)c(Nc3ccc(Br)cc3F)c(C(=O)NOCCO)cc21` [ARRY-162] had an AC50 cell viability with HCT116 [1] of 0.468 µM. Also, in the assay with HCT116 [2], the efficacy was -60.8%.
Taken in the same sequence, the figures for `C[C@H](NC(=O)[C@@H]1C[C@@H](O)CN1C(=O)[C@@H](NC(=O)COCCCOCCNC(=O)C[C@@H]2\N=C(C3=CC=C(Cl)C=C3)/C4=C(SC(=C4C)C)[N]5C(=NN=C25)C)C(C)(C)C)C6=CC=C(C=C6)C7=C(C)N=CS7` [ARV-771] were 0.148 µM and -91%.
Consider `CC1=C(C)C\2=C(S1)[N]3C(=NN=C3[C@H](CC(=O)NC4=CC=C(OCCOCCOCCOCCNC5=CC=CC6=C5C(=O)N(C7CCC(=O)NC7=O)C6=O)C=C4)\N=C2C8=CC=C(Cl)C=C8)C` (stereo not given in full) [ARV-825], for which the AC50 cell viability in the assay with HCT116 [1] is 0.263 µM. In the assay on HCT116 [2], the efficacy was -73.3%.
Taken in the same sequence, the figures for `COc1cc(N2CCC(N3CCN(C)CC3)CC2)ccc1Nc1ncnc(Nc2ccccc2[S+](=O)([O-])C(C)C)n1` [ASP-3026] were 4.68 µM and -82.2%.
In turn, `C=CC(=O)Nc1ccc2ncnc(Nc3ccc(OCc4cccc(F)c4)c(Cl)c3)c2c1` [AST-1306] yielded an AC50 cell viability in the assay with HCT116 [1] of 11.8 µM. The efficacy with HCT116 [2] is -98.3%.
In the assay with HCT116 [1], `O=C(NC1CCNCC1)c1n[nH]cc1NC(=O)c1c(Cl)cccc1Cl` [AT-7519] showed an AC50 cell viability of 0.235 µM. Further, the efficacy in the assay with HCT116 [2] is -65.1%.
Taken in the same sequence, the figures for `Clc1ccc(C2(c3ccc(-c4cn[nH]c4)cc3)CCNCC2)cc1` [AT-7867] were 18.6 µM and -87.4%.
Taken in the same sequence, the figures for `O=C(Nc1c[nH]nc1-c1nc2cc(CN3CCOCC3)ccc2[nH]1)NC1CC1` [AT-9283] were 0.417 µM and -62.5%.
Taken in the same sequence, the figures for `C=CC(=O)Nc1cc2c(Nc3ccc(F)c(Cl)c3)ncnc2cc1C#CC(C)(C)N1CCN(C)CC1` [AV-412] were 9.34 µM and -104%.
For `CC[C@H](CC#N)OC(=O)N[C@@H](C)c1cccc(NC(=O)Nc2ccc(-c3cnco3)c(OC)c2)c1` [AVN944], the AC50 cell viability in the assay on HCT116 [1] was found to be 0.332 µM. In addition, the efficacy in the assay with HCT116 [2] was -72.8%.
Taken in the same sequence, the figures for `CC(C)Oc1cc(Nc2nc(N[C@@H](C)c3ccc(F)cn3)ncc2Cl)n[nH]1` [AZ-23] were 5.25 µM and -67.9%.
The like results for `CCCc1cc(C(=O)N[C@H](Cc2ccc(-c3cccc(OC(F)(F)F)c3)nc2)C(=O)N[C@@H]2CCNC2)sc1C` [AZ-82] were, in that order, 8.33 µM and -97.3%.
On to `COc1cc(N2CCN(C)CC2)ccc1Nc1nccc(-c2cn(C)c3cnccc23)n1` [AZ-191], for which, in the assay on HCT116 [1], the AC50 cell viability stood at 18.6 µM. The efficacy in the assay with HCT116 [2] was -88.4%.
The like results for `CN1\C=N/C2=CC=C(NC3=CC(=CC=C3C)NC(=O)C4=CC(=CC=C4)C(C)(C)C#N)C=C2C1=O` [AZ-628] were, in that order, 0.332 µM and -50.6%.
Taken in the same sequence, the figures for `Cc1cc(Nc2nc(N[C@@H](C)c3ccc(F)cc3)c(C#N)cc2F)n[nH]1` [AZ-960] were 5.9 µM and -100%.
The like results for `COc1cc(OC2CCN(C)CC2)ccc1Nc1ncc2c(n1)n(C1CCCC1)c(=O)n2C` [AZ-3146] were, in that order, 5.9 µM and -102%.
For `O=C1N\N=C(\CC2=CC=CC(=C2)C(=O)N3CCN(CC3)C4=NC=CC=C4C#N)C5=CC=CC=C15` [AZ-9482], the AC50 cell viability in the assay with HCT116 [1] amounted to 5.25 µM. Moreover, the efficacy with HCT116 [2] was -54.2%.
For the compound `NC(=O)Nc1cc(-c2ccc(CN3CCOCC3)cc2)sc1C(N)=O` [AZ-TAK1 Inhibitor], the AC50 cell viability in the assay with HCT116 [1] is 5.25 µM. Further, in the assay with HCT116 [2], the efficacy is -71%.
Taken in the same sequence, the figures for `CN(C)CCCOc1ccc(-c2ccc3ncc4c(c3c2)n(C2CCOCC2)c(=O)n4C)cn1` [AZD-0156] were 7.23 µM and -86%.
Taken in the same sequence, the figures for `NC1CCCN(c2c(/C=C3\SC(=O)NC3=O)cccc2-c2ccccc2)C1` (stereo not given) [AZD-1208] were 23.5 µM and -67.1%.
The like results for `Cc1cc(Nc2nc(N[C@@H](C)c3ncc(F)cn3)ncc2Cl)n[nH]1` [AZD-1480] were, in that order, 5.25 µM and -66.2%.
The compound `C[C@H]1COCCN1c1cc(C2([S+](=O)([O-])C3CC3)CC2)nc(-c2ccc(NC(=S)NCCO)cc2)n1` [AZD-3147] registered an AC50 cell viability in the assay on HCT116 [1] of 7.42 µM. Moreover, the efficacy in the assay with HCT116 [2] is -113%.
In the case of `COc1cc(N2CCC(N)CC2)ccc1Nc1ncc(Cl)c(-c2c[nH]c3ccccc23)n1` [AZD-3463], in the assay with HCT116 [1], the AC50 cell viability stood at 5.9 µM. In addition, in the assay on HCT116 [2], the efficacy was -137%.
The like results for `COc1cc(CCc2cc(NC(=O)c3ccc(N4C[C@@H](C)N[C@@H](C)C4)cc3)n[nH]2)cc(OC)c1` [AZD-4547] were, in that order, 10.5 µM and -98.5%.
Taken in the same sequence, the figures for `COc1nnc2ccc(N3CCC(c4ccc(OCCN5CCN(C)C(=O)[C@H]5C)cc4)CC3)nn12` [AZD-5153 6-Hydroxy-2-naphthoic acid] were 0.0833 µM and -68.6%.
